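The compound was tested at five concentrations on cells cultured in 96-well plates, with a 48-hour exposure period. TGI marks complete inhibition of growth.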
Assays:
Test in all cases: inhibition of tumour cell growth, NCI panel, 48 h
[1] = test system: MOLT-4 leukemia
[2] = test system: HCT-15 colon
[3] = test system: M14 melanoma
[4] = test system: UACC-62 melanoma
[5] = test system: DMS 114 small cell lung
[6] = test system: RXF 393 renal
[7] = test system: A498 renal
[8] = test system: OVCAR-8 ovarian
[9] = test system: HT29 colon
[10] = test system: CCRF-CEM leukemia
[11] = test system: LOX IMVI melanoma
[12] = test system: K-562 leukemia
[13] = test system: NCI-H460 lung
[14] = test system: RXF-631 renal
[15] = test system: MALME-3M melanoma
[16] = test system: A549 NSCLC
[17] = test system: SW-620 colon
[18] = test system: RPMI-8226 leukemia
[19] = test system: SK-MEL-28 melanoma
[20] = test system: SF-295 CNS
[21] = test system: IGROV1 ovarian
[22] = test system: HL-60(TB) leukemia
[23] = test system: NCI-H23 lung
[24] = test system: SNB-78 CNS
[25] = test system: OVCAR-5 ovarian
[26] = test system: EKVX NSCLC
[27] = test system: COLO 205 colon
[28] = test system: SN12C renal
[29] = test system: UACC-257 melanoma
[30] = test system: KM12 colon
[31] = test system: HOP-18 NSCLC
[32] = test system: 786-0 renal
[33] = test system: TK-10 renal
[34] = test system: LXFL 529 NSCLC
[35] = test system: SF-539 CNS
[36] = test system: DLD-1 colon
[37] = test system: ACHN renal
[38] = test system: NCI-H522 lung
[39] = test system: M19-MEL melanoma
[40] = test system: HCC-2998 colon
[41] = test system: SNB-75 CNS
[42] = test system: KM20L2 colon
[43] = test system: DMS 273 small cell lung
[44] = test system: SNB-19 CNS
[45] = test system: SK-OV-3 ovarian
[46] = test system: OVCAR-4 ovarian
[47] = test system: HCT-116 colon
[48] = test system: SK-MEL-2 melanoma
[49] = test system: OVCAR-3 ovarian
[50] = test system: U251 CNS
[51] = test system: SF-268 CNS
[52] = test system: HOP-62 NSCLC
[53] = test system: HOP-92 NSCLC
[54] = test system: UO-31 renal
[55] = test system: NCI-H226 lung
[56] = test system: SR leukemia
[57] = test system: SK-MEL-5 melanoma
[58] = test system: CAKI-1 renal
[59] = test system: XF 498 CNS

`O=C(CC(=O)N1N=C(n2ccc3ccccc32)CC1c1ccccc1)Nc1ccc(Cl)cc1` (configuration not stated) was tested, and the TGI [1] was > 100 µM, the TGI [2] was > 100 µM and the TGI [3] was > 100 µM. The TGI [4] was > 100 µM, the TGI [5] was > 100 µM and the TGI [6] was > 100 µM. For the same compound, the TGI [7] was > 100 µM, the TGI [8] was > 100 µM and the TGI [9] was > 100 µM. For the same compound, the TGI [10] was > 100 µM, the TGI [11] was > 100 µM and the TGI [12] was > 100 µM. The TGI [13] was > 100 µM, the TGI [14] was > 100 µM and the TGI [15] was > 100 µM. For the same compound, the TGI [16] was > 100 µM, the TGI [17] was > 100 µM and the TGI [18] was > 100 µM. For the same compound, the TGI [19] was > 100 µM, the TGI [20] was > 100 µM and the TGI [21] was > 100 µM. The TGI [22] was > 100000 nM, the TGI [23] was > 100 µM and the TGI [24] was > 100 µM. For the same compound, the TGI [25] was > 100 µM, the TGI [26] was > 100 µM and the TGI [27] was > 100 µM. For the same compound, the TGI [28] was > 100 µM, the TGI [29] was > 100 µM and the TGI [30] was > 100 µM. The TGI [31] was > 100 µM, the TGI [32] was > 100 µM and the TGI [33] was > 100 µM. The TGI [34] was > 100 µM, the TGI [35] was > 100 µM and the TGI [36] was > 100 µM. The TGI [37] was > 100 µM, the TGI [38] was > 100 µM and the TGI [39] was > 100 µM. The TGI [40] was > 100 µM, the TGI [41] was > 100 µM and the TGI [42] was > 100 µM. For the same compound, the TGI [43] was > 100 µM, the TGI [44] was > 100 µM and the TGI [45] was > 100 µM. The TGI [46] was > 100 µM, the TGI [47] was > 100 µM and the TGI [48] was > 100 µM. The TGI [49] was > 100 µM, the TGI [50] was > 100 µM and the TGI [51] was > 100 µM. The TGI [52] was > 100 µM, the TGI [53] was > 100 µM and the TGI [54] was > 100 µM.

With `O=C[C@]12CC=C3OC4OC5(CCCCC5)OC4[C@H]3[C@H]1C(=O)C=CC2=O` (some centres not stated) the TGI [1] was 15.3 µM, the TGI [2] was 43.4 µM and the TGI [3] was 38.7 µM. For the same compound, the TGI [4] was 52.6 µM, the TGI [55] was > 100 µM and the TGI [5] was 50.8 µM. For the same compound, the TGI [6] was 25.9 µM, the TGI [7] was > 100 µM and the TGI [56] was 7.93 µM. For the same compound, the TGI [8] was 34.6 µM, the TGI [9] was > 100 µM and the TGI [10] was 9.3 µM. The TGI [13] was 58.7 µM, the TGI [14] was > 100 µM and the TGI [15] was 34.4 µM. For the same compound, the TGI [16] was > 100 µM, the TGI [17] was 38.9 µM and the TGI [19] was 96.3 µM. The TGI [20] was > 100 µM, the TGI [22] was 2780 nM and the TGI [24] was 29.4 µM. The TGI [25] was > 100 µM, the TGI [26] was 39.8 µM and the TGI [28] was > 100 µM. For the same compound, the TGI [29] was 45.3 µM, the TGI [30] was > 100 µM and the TGI [32] was 21.5 µM. For the same compound, the TGI [57] was 35.5 µM, the TGI [33] was 81.3 µM and the TGI [34] was 39.8 µM. It also gave a TGI [35] of 13.4 µM, a TGI [36] of 38.9 µM and a TGI [58] of 74.6 µM. The TGI [37] was 58.5 µM, the TGI [38] was 22.1 µM and the TGI [39] was 54.5 µM. The TGI [40] was 90.8 µM, the TGI [43] was > 100 µM and the TGI [44] was > 100 µM. The TGI [45] was > 100 µM, the TGI [46] was 31.7 µM and the TGI [47] was 38.4 µM. The TGI [48] was > 100 µM, the TGI [50] was 64.6 µM and the TGI [59] was 27.8 µM. For the same compound, the TGI [51] was 89 µM, the TGI [52] was > 100 µM and the TGI [54] was 40.8 µM.

Reference: PubChem BioAssay (NCI)
